According to patent US20070059708A1, “Gene screen” (priority 2003, published 2007):

System: HT29 cells
Test: Optimisation of HT29 cell growth in butyrate as sole extraneous carbon source (cell counts)
Type: cell-based, human
Conditions: HT29 colon carcinoma cells, DMEM without glucose, multiple concentrations compared
Procedure: We have compared the expression profiles of colon cells growing in either glucose or butyrate as a carbon source. HT 29 colon carcinoma cells were cultured in DMEM medium (Gibco) in the presence of 10% foetal calf serum, penicillin and streptomycin. Cells were either cultured in glucose alone as the sole carbon source, or in butyrate as the sole extraneous provided carbon source. […] Cells were cultured in either medium for multiple passages (typically 4). RNA was extracted from cells grown in each condition and used to probe an Affymetrix human 12 k array. The expression profile of cells cultured in each condition was compared and genes altered in expression by more than 2 fold are listed in Table 2.
HT29 cells were seeded out into 19 wells (in 6 well plates) at a cell density of 0.5×10^6 cells per well (i.e. 500 000 cells per well) deduced with the aid of a Haemocytometer (Improved Neubauer). These cells were taken from T75-0.2 mM butyrate (NaB) DMEM flasks and allowed to adhere to the 6-well plates over 72 hrs also in 0.2 mM NaB DMEM with FCS and Penicillin/Streptomycin antibiotics. […]

`CCCC(=O)[O-].[Na+]` [butyrate, Sodium Butyrate] was tested, and the “butyrate concentration optimal for cell culture” value was 2 mM.
